Reference: patent US4440761A, “Interferon inducer, a process for producing the same and pharmaceutical composition containing the same” (The Kitasato Institute, priority 1980, dated 1984)
“Also recorded” adds a separate entry of the source. Like-named read-outs stand apart in the source and are kept apart here.

Tests used:
interferon = settings: background, cited from earlier work
spleen cell [1] = assay: IF induction in vitro, rabbit spleen cells (determined in RK-13); assay type: cell-based; settings: 1.0* μg/ml, control
Human spleen = assay: IF induction in vitro, human spleen (determined in FL cells); assay type: cell-based; settings: 1.0* μg/ml, control
Experimental: A spleen cell suspension (10^7 cells/ml) was prepared by the method of hereinafter described Experiment 1 using an Eagle MEM medium (commercial product of Nissui Seiyaku K.K., Tokyo) containing a 10% calf serum (which was replaced by a 10% fetal cattle serum in the cases of human tests), each of which fraction (1 ml) was added with a given concentration of the sample and incubated overnight at a given temperature. The cultured liquor was centrifuged to separate a supernatant which was used for determining the IF activity induced. In the case of humans, the fresh spleen was collected from a person (adult deceased by external wounds) and used for the preparation of a leucocytes suspension on each occasion, and also blood was collected from the vein at the upper arm of a person (adult), from which the serum was separated to use for the preparation of a serum suspension of each occasion.
The IF activities were determined by using the cells shown in Table 5 in a similar manner to that hereinafter described in Experiment 1.

spleen cell [2] = assay: IF induction in vitro, mouse spleen cells (determined in L cells); assay type: cell-based; settings: 1.0* μg/ml, control
[3] = 56° C. for 5 hours; cited from earlier work

O=C(/C=C/c1ccc(O)cc1)C1=C(O)[C@](O)([C@@H]2O[C@H](CO)[C@@H](O)[C@H](O)[C@H]2O)C(O)=C(/C=C2/C(=O)C(C(=O)/C=C/c3ccc(O)cc3)=C(O)[C@@](O)([C@@H]3O[C@H](CO)[C@@H](O)[C@H](O)[C@H]3O)C2=O)C1=O [carthamine]
IF inducing activity (interferon): no IF inducing activity

Poly I:C
IF activity in vitro (spleen cell [1]): 160
IF activity in vitro (Human spleen): < 10
IF activity in vitro (spleen cell [2]): 75

carthamone
IF inducing activity (interferon): no IF inducing activity

neocarthamine
IF inducing activity (interferon): no IF inducing activity

phytohemagglutinin
IF-inducing activity on heating [3]: inactivated
IF inducing activity (interferon): very weak
IF inducing activity (interferon; listed as phytohemagglitinin): extremely low

pokeweed mitogen
IF-inducing activity on heating [3]: inactivated
IF inducing activity (interferon): very weak; also recorded: extremely low
